Laboratory results published in ChEMBL document CHEMBL3137667, “[Drug-induced liver injury; fourteenth updated edition of the bibliographic database of liver injuries and related drugs]” (Gastroenterol Clin Biol, 2004).

Assays:
[1] = Highest frequency of moderate liver toxicity observed during clinical trials, expressed as a percentage. [column '% BIOL' in source]; settings: human
[2] = Highest frequency of acute liver toxicity observed during clinical trials, expressed as a percentage. [column '% AIGUE' in source]; settings: human
[3] = Comments (NB not yet translated). [column 'COMMENTAIRES' in source]; settings: human
[4] = Times to onset, minimal and maximal, observed in the indexed observations. [column 'DELAI' in source]; settings: human
[5] = Proposed mechanism(s) of liver damage. [column 'MEC' in source]; settings: human
[6] = human, serum
[7] = human, serum; remark: listed apart in the source
[8] = human
[9] = human; remark: listed apart in the source
[10] = human; remark: listed apart in the source
[11] = human, serum, 4383 h
[12] = human; remark: listed apart in the source
[13] = human; remark: listed apart in the source
[14] = human; remark: listed apart in the source
[15] = human; remark: listed apart in the source
[16] = human; remark: listed apart in the source
[17] = human; remark: listed apart in the source
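Wherever Hepatotoxicity (association with vascular disease) is given: count of indexed literature references reporting vascular liver injury in humans, e.g. peliosis hepatitis, hepatic veno-occlusive disease or Budd-Chiari syndrome.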
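Wherever Hepatotoxicity (benign tumour) is given: value is a count of indexed literature references citing a benign tumour confirmed by histopathology.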
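Wherever Hepatotoxicity (choleostasis) is given: human cholestatic liver injury, shown by histopathology or by peak ALT or AST elevation over alkaline phosphatase ratio below 2, value counts indexed literature reports.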
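Wherever Hepatotoxicity (chronic liver disease) is given: chronic liver injury confirmed by histopathology or persistently raised serum aminotransferase activity beyond 6 months, value given as the count of indexed literature references.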
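Wherever Hepatotoxicity (cirrhosis) is given: value is a count of indexed literature references reporting cirrhosis confirmed by histopathology.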
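Wherever Hepatotoxicity (cytolytic) is given: human cytolytic liver injury, shown by histopathology or by a ratio above 5 of peak ALT or AST elevation to alkaline phosphatase elevation, value counts indexed references.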
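Wherever Hepatotoxicity (granulomatous hepatitis) is given: value is a count of indexed literature references reporting granulomatous liver disease confirmed by histopathology.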
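Wherever Hepatotoxicity (malignant tumour) is given: malignant tumour confirmed by histopathology, value gives the count of indexed literature references reporting it.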
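Wherever Hepatotoxicity (severe hepatitis) is given: human clinical data: severe hepatitis, meaning potentially life-threatening liver failure or clinically observed cases, the value counts how many indexed literature references report it.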
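Wherever Hepatotoxicity (steatosis) is given: steatosis confirmed by histopathology, value is the count of indexed references.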

| Molecule | Hepatotoxicity (moderate) [1] [%] | Hepatotoxicity (acute) [2] [%] | Hepatotoxicity (comment) [3] | Hepatotoxicity (time to onset) [4] | Hepatotoxicity (mechanism) [5] | Hepatotoxicity (moderate) [6] | Hepatotoxicity (acute) [7] | Hepatotoxicity (cytolytic) [8] | Hepatotoxicity (choleostasis) [9] | Hepatotoxicity (severe hepatitis) [10] | Hepatotoxicity (chronic liver disease) [11] | Hepatotoxicity (cirrhosis) [12] | Hepatotoxicity (granulomatous hepatitis) [13] | Hepatotoxicity (association with vascular disease) [14] | Hepatotoxicity (steatosis) [15] | Hepatotoxicity (malignant tumour) [16] | Hepatotoxicity (benign tumour) [17] | further results |
| --- | --- | --- | --- | --- | --- | --- | --- | --- | --- | --- | --- | --- | --- | --- | --- | --- | --- | --- |
| CC(C)c1c(C(=O)Nc2ccccc2)c(-c2ccccc2)c(-c2ccc(F)cc2)n1CC[C@@H](O)C[C@@H](O)CC(=O)O [ATORVASTATIN] | 13.6 | 1.8 | AC_ANTI-N/-ML | 6 days - 7 months | Allergic | 36 | 10 | 5 | 6 | 1 | 1 | 1 | 0 | 0 | 0 | 0 | 0 | – |
| Nc1nnc(-c2cccc(Cl)c2Cl)c(N)n1 [LAMOTRIGINE] | 7.7 | 0 | DUCTOPENIE CHOLESTASE_PROLONGEE | 5 days - 3 months | Allergic | 7 | 17 | 12 | 1 | 9 | 0 | 0 | 0 | 0 | 0 | 0 | 0 | – |
| CN1CCC(=C2c3ccccc3C=Cc3ccccc32)CC1 [CYPROHEPTADINE] | 0 | 0 | CHOLESTASE_PROLONGEE CHOLANGITE | 1 week - 1 month | Allergic | 0 | 5 | 3 | 3 | 0 | 0 | 0 | 0 | 0 | 0 | 0 | 0 | – |
| COCCCC/C(=N\OCCN)c1ccc(C(F)(F)F)cc1 [FLUVOXAMINE] | 0 | 0 | SURDOSAGE | 4 days - 4 months | Dose-dependant | 5 | 3 | 1 | 2 | 0 | 0 | 0 | 0 | 0 | 0 | 0 | 0 | – |
| Cc1cccc(C)c1NC(=O)C(C)N (centres undefined) [TOCAINIDE] | 1.7 | 0 | AC_ANTI-N/-ML | 1 month - 2 months | Allergic | 2 | 6 | 5 | 4 | 0 | 0 | 0 | 1 | 0 | 1 | 0 | 0 | – |
| INTERFERON ALFA | 58 | 0 | AGGRAVATION_HEPATITE_AUTOIMMUNE/B/DELTA AC_ANTI-ML/LKM/CH | 8 days - 8 months | Dose-dependant | 21 | 2 | 2 | 1 | 1 | 0 | 1 | 0 | 0 | 3 | 0 | 0 | – |
| COc1ccc2cc([C@H](C)C(=O)O)ccc2c1 [NAPROXEN] | – | – | RC/FENOPROFENE | 2 days - 2 months | – | 13 | 19 | – | – | – | 0 | 0 | – | 0 | 1 | 0 | 0 | Hepatotoxicity (moderate) ([1]; Liver): 9.5%; Hepatotoxicity (acute) ([2]; Liver): 1.1%; Hepatotoxicity (mechanism) ([5]; Liver): Allergic; Hepatotoxicity (cytolytic) ([8]; Liver): 8; Hepatotoxicity (choleostasis) ([9]; Liver): 8; Hepatotoxicity (severe hepatitis) ([10]; Liver): 4; Hepatotoxicity (granulomatous hepatitis) ([13]; Liver): 1 |
| CCCc1cc(C(N)=S)ccn1 [PROTIONAMIDE] | 13 | 2.5 | I/PILULE | 3 months - 1 year | Dose-dependant | 8 | 7 | 4 | 0 | 2 | 0 | 0 | 0 | 0 | 0 | 0 | 0 | – |
| COc1cc([C@@H]2c3cc4c(cc3[C@@H](O[C@@H]3O[C@@H]5CO[C@@H](C)O[C@H]5[C@H](O)[C@H]3O)[C@H]3COC(=O)[C@H]23)OCO4)cc(OC)c1O [ETOPOSIDE] | – | – | MVO | 1 week - 5 weeks | – | 24 | 4 | – | – | – | 0 | 0 | – | 10 | 0 | 0 | 0 | Hepatotoxicity (moderate) ([1]; Liver): 50%; Hepatotoxicity (acute) ([2]; Liver): 1%; Hepatotoxicity (mechanism) ([5]; Liver): Dose-dependant; Hepatotoxicity (cytolytic) ([8]; Liver): 2; Hepatotoxicity (choleostasis) ([9]; Liver): 2; Hepatotoxicity (severe hepatitis) ([10]; Liver): 5; Hepatotoxicity (granulomatous hepatitis) ([13]; Liver): 0 |
| CC(=O)OCC1=C(C(=O)O)N2C(=O)[C@@H](NC(=O)Cc3cccs3)[C@H]2SC1 [CEPHALOTHIN] | 1.5 | 0 | RC/NAFCILLINE/OXACILLINE/CEFAPIRINE | 1 day - 1 month | Allergic | 4 | 4 | 1 | 1 | 0 | 0 | 0 | 0 | 0 | 0 | 0 | 0 | – |
| Cc1onc(-c2c(Cl)cccc2Cl)c1C(=O)N[C@@H]1C(=O)N2[C@@H]1SC(C)(C)[C@@H]2C(=O)O [DICLOXACILLIN] | 0 | 0 | CHOLESTASE_PROLONGEE | 5 days - 2 months | Allergic | 2 | 4 | 0 | 3 | 0 | 1 | 0 | 1 | 0 | 0 | 0 | 0 | – |
| O=C(c1cc(O)c(O)c(O)c1)c1ccc(O)c(O)c1O [EXIFONE] | 0 | 0 | AC_ANTI-ML/-N | 3 weeks - 8 months | Allergic, Toxic | 0 | 9 | 9 | 0 | 4 | 0 | 0 | 0 | 0 | 0 | 0 | 0 | – |
